In patent US11834458B2, “Anti-cancer nuclear hormone receptor-targeting compounds” (Nuvation Bio Inc., priority 2021, dated 2023):
Where two headings read alike, the source gives them in different places.

What was measured:
T47D cells = experiment: Cell viability assay, T47D; assay type: cell-based; conditions: Homo sapiens, 144 h
Description: (§1) Cell viability assay: LNCap, 22Rv1, MCF7, MDAMB361, T47D, and IEC6 cells are seeded at a density of 500-2000 cells/well in 96 well plates, and a ‘T0’ (timepoint 0) was included along with the assay plate. The plates are then incubated at 37° C., 5% CO2 in a cell culture incubator overnight. On the next day, the ‘T0’ plate was assayed using CellTiterGlo (Promega, Inc) according to the manufacturer's instructions. The appropriate compounds are diluted in DMSO and added to the assay plate (final DMSO concentration of 0.1-0.2%) on the next day. The assay plates are incubated for 6 days at 37° C., 5% CO2. After the incubation period, the plates are assayed using CellTiterGlo (Promega, Inc) according to the manufacturer's instructions and luminescence was read on the EnVision plate reader. Inhibition of the tested compounds was determined by the following formula: Inhibition rate (%)=(1−(RLU compound−RLU day0)/(RLU control−RLU day0))*100%. GraphPadPrism was used to analyze the data and determine GI50/IC50 values.

IEC6 cells = experiment: Cell viability assay, IEC6; assay type: cell-based; conditions: Rattus norvegicus
Description: as §1

MCF7 cells = experiment: Cell viability assay, MCF7; assay type: cell-based; conditions: Homo sapiens
Description: as §1

LNCap cells = experiment: Cell viability assay, LNCap; assay type: cell-based; conditions: Homo sapiens, 144 h
Description: as §1

MDAMB361 cells = experiment: Cell viability assay, MDAMB361; assay type: cell-based; conditions: Homo sapiens
Description: as §1

AR = AR (Homo sapiens (Human), UniProt P10275, T878A); experiment: AR binding assay
Description: AR binding assay: To assess AR binding, test compound (top dose 10 μM, 4 fold serial dilution, 8 point dose response) and control (progesterone) were transferred to the assay plate. Cytosol from LnCaP cells was added to the plate, followed by addition of radiolabeled ^3H-R1881 at a final concentration of 1 nM. The plate was sealed, and the reaction was incubated at 300 rpm at 4° C. for 24 hrs. Radioligand absorption buffer (10 mM Tris-HCl, pH 7.4; 1.5 mM EDTA; 1 mM DTT; 0.25% charcoal; 0.0025% dextran) was then added to the plate, mixed, and incubated at 4° C. for 15 minutes. The plate was then centrifuged at 3000 rpm for 30 minutes at 4° C. The supernatant was transferred to the scint-tube and Tri-carb was used for scintillation counting. The data was analyzed using GraphPadPrism v5.0 and binding IC50 was determined as the concentration where 50% inhibition of radioligand binding was observed.

[1] = biological target: full-length androgen receptor (Homo sapiens (Human), UniProt P10275); experiment: AR antagonism assay; assay type: cell-based
Description: AR antagonism assay: To evaluate AR antagonist activity, test compound was added to the assay plate (top dose 10 μM, 3 fold serial dilution, 10 point dose response). HEK293 cells stably expressing the full-length androgen receptor were seeded at a density of 20,000 cells/well in the assay plate. The assay plate was then incubated at room temperature for 10 minutes and at 37° C., 5% CO2 for 20 minutes. Testosterone was added to the assay plate at 1 nM final concentration and the assay plate incubated at 37° C., 5% CO2 for 20 h. After the incubation period, Steady-glo was added to the assay plate and mixed at room temperature for 20 minutes on an orbital shaker, before reading out on the EnVision plate reader.

22Rv1 cells = experiment: Cell viability assay, 22Rv1; assay type: cell-based; conditions: Homo sapiens
Description: as §1

[2] = IEC-6, 144 h, read-out: IEC-6 (IC50, nM)
[3] = LNCaP, read-out: LNCap (GI50, nM)
[4] = 144 h, IEC-6 cells, 6 days, CellTiterGlo, read-out: IEC-6 (IC50)
[5] = LNCap cells, 6 days, CellTiterGlo, read-out: LNCap (GI50)
[6] = cytosol from LnCaP cells, 3H-R1881 1 nM, 4° C. 24 hrs, read-out: AR binding
[7] = 144 h, 22RV1 cells, 6 days, CellTiterGlo, read-out: 22RV1 (GI50)
[8] = HEK293 cells stably expressing full-length androgen receptor, testosterone 1 nM, 20 h, read-out: AR antagonism
[9] = 22Rv1, 144 h, read-out: 22RV1 (GI50, nM)

AR, sequence (P10275 whole entry T878A): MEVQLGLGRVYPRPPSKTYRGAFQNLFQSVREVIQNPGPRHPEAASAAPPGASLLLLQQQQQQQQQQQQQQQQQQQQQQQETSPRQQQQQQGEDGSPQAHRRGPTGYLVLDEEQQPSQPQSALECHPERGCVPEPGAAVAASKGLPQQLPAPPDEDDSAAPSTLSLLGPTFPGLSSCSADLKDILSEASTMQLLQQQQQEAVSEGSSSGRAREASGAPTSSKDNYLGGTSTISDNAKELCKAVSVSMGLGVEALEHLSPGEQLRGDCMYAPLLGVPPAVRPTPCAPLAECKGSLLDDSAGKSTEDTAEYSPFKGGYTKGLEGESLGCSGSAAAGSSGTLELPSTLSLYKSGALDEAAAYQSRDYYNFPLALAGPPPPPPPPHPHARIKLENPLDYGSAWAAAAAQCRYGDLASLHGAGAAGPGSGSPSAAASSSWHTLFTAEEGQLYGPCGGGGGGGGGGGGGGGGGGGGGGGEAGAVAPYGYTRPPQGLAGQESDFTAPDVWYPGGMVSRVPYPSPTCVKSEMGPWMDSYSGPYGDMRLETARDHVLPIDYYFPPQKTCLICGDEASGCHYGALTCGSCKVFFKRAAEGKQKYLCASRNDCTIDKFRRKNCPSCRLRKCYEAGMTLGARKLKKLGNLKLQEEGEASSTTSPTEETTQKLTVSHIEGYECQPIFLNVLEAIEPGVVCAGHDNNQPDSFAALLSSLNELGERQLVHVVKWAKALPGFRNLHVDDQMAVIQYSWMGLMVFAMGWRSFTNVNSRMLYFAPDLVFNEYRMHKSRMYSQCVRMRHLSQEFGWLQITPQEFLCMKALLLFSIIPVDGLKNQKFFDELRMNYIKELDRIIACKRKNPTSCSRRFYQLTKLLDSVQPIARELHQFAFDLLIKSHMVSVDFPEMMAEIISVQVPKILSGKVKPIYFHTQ
full-length androgen receptor, sequence (P10275 whole entry): as the sequence (P10275 whole entry T878A) above, with A878T counted along it

CC[C@@]1(O)C(=O)OCc2c1cc1n(c2=O)Cc2cc3c(COC(C)(C)C)c(OC(=O)N4CCN(CCCCCCN(C)c5ccc([C@H]6C[C@@]7(C)[C@@H](CC[C@]7(OC(C)=O)C(C)=O)[C@@H]7CCC8=CC(=O)CCC8=C76)cc5)CC4)ccc3nc2-1 [Compound 17, (S)-10-(tert-Butoxymethyl)-4-ethyl-4-hydroxy-3,14-dioxo-3,4,12,14-tetrahydro-1H-pyrano[3′,4′:6,7]indolizino[1,2-b]quinolin-9-yl 4-(6-((4-((8S,11R,13S,14S,17R)-17-acetoxy-17-acetyl-13-methyl-3-oxo-2,3,6,7,8,11,12,13,14,15,16,17-dodecahydro-1H-cyclopenta[a]phenanthren-11-yl)phenyl)(methyl)amino)hexyl)piperazine-1-carboxylate]
GI50 (T47D cells; T47D, read-out: T47D (GI50, nM)): > 1000 nM
IC50 (IEC6 cells; [2]): > 1000 nM
GI50 (MCF7 cells; MCF7, 144 h, read-out: MCF7 (GI50, nM)): > 1000 nM
GI50 (LNCap cells; [3]): > 1000 nM
GI50 (MDAMB361 cells; MDA-MB-361, 144 h, read-out: MDA-MB-361 (GI50, nM)): > 1000 nM

CC[C@@]1(O)C(=O)OCc2c1cc1n(c2=O)Cc2cc3c(CN4CCN(C(=O)CCCCCN(C)c5ccc([C@H]6C[C@@]7(C)[C@@H](CC[C@]7(OC(C)=O)C(C)=O)[C@@H]7CCC8=CC(=O)CCC8=C76)cc5)CC4)c(O)ccc3nc2-1 [Compound 19, (8S,11R,13S,14S,17R)-17-Acetyl-11-(4-((6-(4-(((S)-4-ethyl-4,9-dihydroxy-3,14-dioxo-3,4,12,14-tetrahydro-1H-pyrano[3′,4′:6,7]indolizino[1,2-b]quinolin-10-yl)methyl)piperazin-1-yl)-6-oxohexyl)(methyl)amino)phenyl)-13-methyl-3-oxo-2,3,6,7,8,11,12,13,14,15,16,17-dodecahydro-1H-cyclopenta[a]phenanthren-17-yl Acetate]
GI50 (T47D cells; T47D cells, 6 days, CellTiterGlo, read-out: T47D (GI50)): 10 to 500 nM
IC50 (IEC6 cells; [4]): > 1000 nM
GI50 (MCF7 cells; 144 h, MCF7 cells, 6 days, CellTiterGlo, read-out: MCF7 (GI50)): 10 to 500 nM
GI50 (LNCap cells; [5]): 10 to 500 nM
GI50 (MDAMB361 cells; 144 h, MDA-MB-361 cells, 6 days, CellTiterGlo, read-out: MDA-MB-361 (GI50)): 10 to 500 nM

CC[C@@]1(O)C(=O)OCc2c1cc1n(c2=O)Cc2cc3c(CN4CCN(C(=O)CCCCCOc5ccc(C(=O)N[C@H]6CC[C@H](Oc7ccc(C#N)c(Cl)c7)CC6)cc5)CC4)c(O)ccc3nc2-1 [Compound 12, N-((1r,4r)-4-(3-Chloro-4-cyanophenoxy)cyclohexyl)-4-((6-(4-(((S)-4-ethyl-4,9-dihydroxy-3,14-dioxo-3,4,12,14-tetrahydro-1H-pyrano[3′,4′:6,7]indolizino[1,2-b]quinolin-10-yl)methyl)piperazin-1-yl)-6-oxohexyl)oxy)benzamide]
IC50 (AR; [6]): > 1000 nM
IC50 (IEC6 cells; [4]): > 1000 nM
GI50 (LNCap cells; [5]): 10 to 500 nM
IC50 [1]: 10 to 500 nM
GI50 (22Rv1 cells; [7]): 501 to 1000 nM

CC[C@@]1(O)C(=O)OCc2c1cc1n(c2=O)Cc2cc3c(CN4CCN(CC5CCN(c6ccc(C(=O)N[C@H]7CC[C@H](Oc8ccc(C#N)c(Cl)c8)CC7)nn6)CC5)CC4)c(O)ccc3nc2-1 [Compound 11, N-((1r,4r)-4-(3-Chloro-4-cyanophenoxy)cyclohexyl)-6-(4-((4-(((S)-4-ethyl-4,9-dihydroxy-3,14-dioxo-3,4,12,14-tetrahydro-1H-pyrano[3′,4′:6,7]indolizino[1,2-b]quinolin-10-yl)methyl)piperazin-1-yl)methyl)piperidin-1-yl)pyridazine-3-carboxamide]
IC50 (AR; [6]): 10 to 500 nM
IC50 (IEC6 cells; [4]): 501 to 1000 nM
GI50 (LNCap cells; [5]): 10 to 500 nM
IC50 [1]: 10 to 500 nM
GI50 (22Rv1 cells; [7]): 10 to 500 nM

CC[C@@]1(O)C(=O)OCc2c1cc1n(c2=O)Cc2cc3c(CN4CCC(N(C)C(=O)CO[C@H]5CC[C@H]6[C@@H]7CC[C@H]8CC(=O)CC[C@]8(C)[C@H]7CC[C@]56C)CC4)c(O)ccc3nc2-1 [Compound 18, 2-(((5S,8R,9S,10S,13S,14S,17S)-10,13-Dimethyl-3-oxohexadecahydro-1H-cyclopenta[a]phenanthren-17-yl)oxy)-N-(1-(((S)-4-ethyl-4,9-dihydroxy-3,14-dioxo-3,4,12,14-tetrahydro-1H-pyrano[3′,4′:6,7]indolizino[1,2-b]quinolin-10-yl)methyl)piperidin-4-yl)-N-methylacetamide]
IC50 (AR; [6]): 10 to 500 nM
IC50 (IEC6 cells; [4]): > 1000 nM
GI50 (LNCap cells; [5]): 10 to 500 nM
IC50 [1]: > 1000 nM
GI50 (22Rv1 cells; [7]): 10 to 500 nM

CC[C@@]1(O)C(=O)OCc2c1cc1n(c2=O)Cc2cc3c(CN(C)C)c(OCCCCCOc4ccc(C(=O)N[C@H]5CC[C@H](Oc6ccc(C#N)c(Cl)c6)CC5)cc4)ccc3nc2-1 [Compound 7, N-((1r,4r)-4-(3-Chloro-4-cyanophenoxy)cyclohexyl)-4-((5-(((S)-10-((dimethylamino)methyl)-4-ethyl-4-hydroxy-3,14-dioxo-3,4,12,14-tetrahydro-1H-pyrano[3′,4′:6,7]indolizino[1,2-b]quinolin-9-yl)oxy)pentyl)oxy)benzamide]
IC50 (AR; [6]): > 1000 nM
IC50 (IEC6 cells; [4]): 501 to 1000 nM
GI50 (LNCap cells; [5]): 10 to 500 nM
IC50 [1]: 10 to 500 nM
GI50 (22Rv1 cells; [7]): 10 to 500 nM

CC[C@@]1(O)C(=O)OCc2c1cc1n(c2=O)Cc2cc3c(CN(C)C)c(OC(=O)N(C)C4CCN(C(=O)CO[C@H]5CC[C@H]6[C@@H]7CC[C@H]8CC(=O)CC[C@]8(C)[C@H]7CC[C@]56C)CC4)ccc3nc2-1 [Compound 21, (S)-10-((Dimethylamino)methyl)-4-ethyl-4-hydroxy-3,14-dioxo-3,4,12,14-tetrahydro-1H-pyrano[3′,4′:6,7]indolizino[1,2-b]quinolin-9-yl (1-(2-(((5S,8R,9S,10S,13S,14S,17S)-10,13-dimethyl-3-oxohexadecahydro-1H-cyclopenta[a]phenanthren-17-yl)oxy)acetyl)piperidin-4-yl)(methyl)carbamate]
IC50 (AR): 10 to 500 nM
IC50 (IEC6 cells; [2]): > 1000 nM
GI50 (LNCap cells; [3]): 10 to 500 nM
IC50 [1, 8]: > 1000 nM
GI50 (22Rv1 cells; [9]): 10 to 500 nM

CC[C@@]1(O)C(=O)OCc2c1cc1n(c2=O)Cc2cc3c(CN(C)C)c(OC(=O)N4CCC(N(C)C(=O)CO[C@H]5CC[C@H]6[C@@H]7CC[C@H]8CC(=O)CC[C@]8(C)[C@H]7CC[C@]56C)CC4)ccc3nc2-1 [Compound 20, (S)-10-((Dimethylamino)methyl)-4-ethyl-4-hydroxy-3,14-dioxo-3,4,12,14-tetrahydro-1H-pyrano[3′,4′:6,7]indolizino[1,2-b]quinolin-9-yl 4-(2-(((5S,8R,9S,10S,13S,14S,17S)-10,13-dimethyl-3-oxohexadecahydro-1H-cyclopenta[a]phenanthren-17-yl)oxy)-N-methylacetamido)piperidine-1-carboxylate]
IC50 (AR): 10 to 500 nM
IC50 (IEC6 cells; [2]): > 1000 nM
GI50 (LNCap cells; [3]): 10 to 500 nM
IC50 [1, 8]: > 1000 nM
GI50 (22Rv1 cells; [9]): 10 to 500 nM

CC[C@@]1(O)C(=O)OCc2c1cc1n(c2=O)Cc2cc3c(CN(C)C)c(OC(=O)N4CCN(CCCCCCO[C@@H]5CC[C@@H]6[C@H]7CC[C@@H]8CC(=O)CC[C@@]8(C)[C@@H]7CC[C@]65C)CC4)ccc3nc2-1 [Compound 8, (S)-10-((Dimethylamino)methyl)-4-ethyl-4-hydroxy-3,14-dioxo-3,4,12,14-tetrahydro-1H-pyrano[3′,4′:6,7]indolizino[1,2-b]quinolin-9-yl 4-(6-(((5R,8S,9R,10R,13R,14R,17R)-10,13-dimethyl-3-oxohexadecahydro-1H-cyclopenta[a]phenanthren-17-yl)oxy)hexyl)piperazine-1-carboxylate]
IC50 (AR): 10 to 500 nM
IC50 (IEC6 cells; [2]): > 1000 nM
GI50 (LNCap cells; [3]): 10 to 500 nM
IC50 [1, 8]: > 1000 nM
GI50 (22Rv1 cells; [9]): 10 to 500 nM
